Values of other authors, collected in patent US9863006B2, “Selective lysis of cells by ionic surfactants” (Biocartis NV, priority 2011, dated 2018).

Conditions: room temperature

CCCCCCCCCCCCOS(=O)(=O)[O-].[Na+] [sodium dodecyl sulfate]
time to cross the membrane: hours or days
